{"source": "paper PMC11876601", "about": "(Molecular Systems Biology, 2025)", "system": "p-sites in DNA-damaged AsPC-1 cells", "assay": "decryptM dose-resolved phosphoproteomics of ATRi in GEM-pre-treated cells", "type": "cell-based, human", "experimental": "Cell culture medium was replaced 24 h after seeding. […] For time point 0, AsPC-1 cells were treated with a vehicle and lysed immediately. The final DMSO concentration in all experiments was 0.2%.\nBriefly, cells were washed twice with PBS and lysed in SDS lysis buffer (2% SDS in 40 mM Tris-HCl, pH 7.6), followed by sonication for 10 min (30 s on/30 s off) using a Bioruptor (Diagenode). For DNA hydrolysis, samples were boiled at 95 °C for 10 min and incubated with 2% trifluoroacetic acid (TFA) for 1 min, before the reaction was quenched using 4% N-methylmorpholine. Lysate was cleared by centrifugation at 11,000 × g for 5 min and protein concentration was determined using the Pierce BCA Protein Assay Kit (Thermo Scientific).\nUsing 70% ethanol, samples were then precipitated on beads, followed by washing thrice with 80% ethanol and once with 100% acetonitrile. Subsequently, proteins were reduced and alkylated using 10 mM TCEP, 50 mM chloroacetamide, and 2 mM CaCl2 in 100 mM EPPS/NaOH, pH 8.5 for 1 h at 37 °C, followed by tryptic digestion at 37 °C for 16 h. Peptides were acidified with 1% TFA and desalted on Chromabond HLB plates (30 µm particle size, 10 mg capacity, Machery-Nagel), using 0.1% TFA for equilibration and sample loading, and 0.1% TFA in 70% acetonitrile for peptide elution. Recovered peptides were freeze-dried by vacuum-centrifugation and stored at −20 °C.\nDepending on the experiment, samples were either labeled with TMT-11plex (decryptM), TMT-10plex (non-decryptM, quadruplicates), or TMTpro reagent (time-series; all Thermo Scientific). Therefore, dried peptides were reconstituted in 15 µl 100 mM EPPS, pH 8.5 and each treatment condition was labeled with one channel of the respective TMT reagent (5 µl of 25 µg/µl reagent, Appendix Tables S4–S6). The reaction was incubated for 1 h at 23 °C and subsequently quenched with 0.4% hydroxylamine. Then, samples were pooled, acidified with 1% formic acid, and freeze-dried by vacuum-centrifugation. Labeled peptide pools were desalted on C18 Sep-Pak cartridges (37–55 µm particle size, 50 mg capacity, Waters), using 0.1% formic acid as equilibration solvent, and 0.1% formic acid in 60% acetonitrile was used as elution solvent. Eluted peptides were freeze-dried and stored at −20 °C until further use.\nBasic reversed-phase (bRP) fractionation of peptides was performed on a Vanquish HPLC (Thermo Scientific). In short, dried peptides were reconstituted in 200 µl 25 mM ammonium bicarbonate, pH 8.0 and directly injected onto a Waters BEH130 XBridge C18 column (3.5 µm, 4.6 × 250 mm). […] Using an automated fraction collector, 96 fractions were collected between min 7 and 55 after injection. Fractions were acidified with 1% formic acid and pooled to 48 fractions, before they were freeze-dried and stored at −20 °C.\nImmobilized metal ion affinity chromatography (IMAC) enrichment of phosphorylated peptides was performed on the Bravo automated liquid handling platform using AssayMAP Fe(III)-NTA cartridges (Agilent). In brief, the 48 dried peptide fractions were reconstituted in 0.1% TFA in 80% acetonitrile and further pooled to 12 fractions (200 µl final volume per well). The phosphopeptide enrichment protocol embedded in the Agilent AssayMAP Bravo Protein Sample Prep Workbench v2.0 software was run. Thereby, the cartridges were first primed with 150 μl 0.1% TFA in acetonitrile at 300 μl/min, and equilibrated with 150 μl 0.1% TFA in 80% acetonitrile at 10 μl/min. Then, pooled fractions were loaded at 5 µl/min and further washed three times with 150 μl 0.1% TFA in 80% acetonitrile at 50 μl/min. Enriched peptides were eluted with 60 μl 1% ammonium hydroxide at 5 μl/min.", "note": "Read-outs that look alike come from different tables or passages of the source.", "data": [{"smiles": "C[C@@H]1COCCN1c1cc(-c2ccnn2C)c2ccnc(-c3ccn[nH]3)c2n1", "note": "[Elimusertib]", "values": [{"measurement": "Log2 PTM response (GEM+ATRi vs. GEM)", "result": -0.6}, {"measurement": "Log2 PTM response (GEM+ATRi vs. GEM)", "setting": "BRCA1-pS1239", "result": -1.6}, {"measurement": "Log2 PTM response (GEM+ATRi vs. GEM)", "setting": "BRD8-pS621", "result": -1.4}, {"measurement": "Log2 PTM response (GEM+ATRi vs. GEM)", "setting": "CDKN2AIP-pS198", "result": -1.1}, {"measurement": "Log2 PTM response (GEM+ATRi vs. GEM)", "setting": "CHEK1-pS317", "result": -1.9}, {"measurement": "Log2 PTM response (GEM+ATRi vs. GEM)", "setting": "CHEK1-pS468", "result": -3}, {"measurement": "Log2 PTM response (GEM+ATRi vs. GEM)", "setting": "DHX9-pS321", "result": -1.6}, {"measurement": "Log2 PTM response (GEM+ATRi vs. GEM)", "setting": "EXO1-pS714", "result": -1}, {"measurement": "Log2 PTM response (GEM+ATRi vs. GEM)", "setting": "FANCD2-pS319", "result": -1.9}, {"measurement": "Log2 PTM response (GEM+ATRi vs. GEM)", "setting": "HDGF-pS103", "result": -1.1}, {"measurement": "Log2 PTM response (GEM+ATRi vs. GEM)", "setting": "HMGA1-pS9", "result": -1.4}, {"measurement": "Log2 PTM response (GEM+ATRi vs. GEM)", "setting": "HMGA1-pS36;S44", "result": -1}, {"measurement": "Log2 PTM response (GEM+ATRi vs. GEM)", "setting": "HMGA1-pS44", "result": -1.5}, {"measurement": "Log2 PTM response (GEM+ATRi vs. GEM)", "setting": "HSPA4-pS552", "result": -0.7}, {"measurement": "Log2 PTM response (GEM+ATRi vs. GEM)", "setting": "HTATSF1-pS481", "result": -0.8}, {"measurement": "EC50", "setting": "Homo sapiens, ASPC1, read-out: EC50, RALY S176", "result": 12.8, "unit": "nM"}, {"measurement": "Log2 PTM response (GEM+ATRi vs. GEM)", "setting": "LRRC42-pS385", "result": -2.3}, {"measurement": "Log2 PTM response (GEM+ATRi vs. GEM)", "setting": "NBN-pS397", "result": -0.9}, {"measurement": "Log2 PTM response (GEM+ATRi vs. GEM)", "setting": "NBN-pS615", "result": -0.8}, {"measurement": "Log2 PTM response (GEM+ATRi vs. GEM)", "setting": "PELP1-pS1033", "result": -1}, {"measurement": "Log2 PTM response (GEM+ATRi vs. GEM)", "setting": "PNISR-pS706", "result": -1.9}, {"measurement": "Log2 PTM response (GEM+ATRi vs. GEM)", "setting": "PPP6R3-pS825", "result": -0.5}, {"measurement": "Log2 PTM response (GEM+ATRi vs. GEM)", "setting": "PSMD4-pS266", "result": -0.9}, {"measurement": "Log2 PTM response (GEM+ATRi vs. GEM)", "setting": "RAD18-pS368", "result": -2.1}, {"measurement": "Log2 PTM response (GEM+ATRi vs. GEM)", "setting": "RIF1-pS1873", "result": -0.6}, {"measurement": "Log2 PTM response (GEM+ATRi vs. GEM)", "setting": "SNRPA-pS115", "result": -1.1}, {"measurement": "Log2 PTM response (GEM+ATRi vs. GEM)", "setting": "TCEA1-pS100;S97", "result": -2}, {"measurement": "Log2 PTM response (GEM+ATRi vs. GEM)", "setting": "TCEB3-pS251", "result": -0.7}, {"measurement": "Log2 PTM response (GEM+ATRi vs. GEM)", "setting": "THAP4-pS186", "result": -1.1}, {"measurement": "Log2 PTM response (GEM+ATRi vs. GEM)", "setting": "TOPBP1-pS1504", "result": -1.2}, {"measurement": "Log2 PTM response (GEM+ATRi vs. GEM)", "setting": "TSEN34-pS136", "result": -0.8}, {"measurement": "Log2 PTM response (GEM+ATRi vs. GEM)", "setting": "UHRF1-pS393", "result": -0.7}, {"measurement": "Log2 PTM response (GEM+ATRi vs. GEM)", "setting": "UIMC1-pS171", "result": -1.7}, {"measurement": "Log2 PTM response (GEM+ATRi vs. GEM)", "setting": "ZC3H14-pS135", "result": -1.6}, {"measurement": "ATRi Regulation (Curve), RALY S176", "setting": "classified by CurveCurator", "result": "down"}, {"measurement": "PTM response (norm. to 1 µM GEM)", "setting": "source data 4B (p-site not named), 1 µM GEM + ATRi 10 nM", "result": 0.81}, {"measurement": "PTM response (norm. to 1 µM GEM)", "setting": "source data 4B (p-site not named), 1 µM GEM + ATRi 300 nM", "result": 0.28}, {"measurement": "PTM response (norm. to 1 µM GEM)", "setting": "source data 4B (p-site not named), 1 µM GEM + ATRi 1000 nM", "result": 0.29}, {"measurement": "PTM response (norm. to 1 µM GEM)", "setting": "source data 4B (p-site not named), 1 µM GEM + ATRi 3000 nM", "result": 0.30}, {"measurement": "PTM response (norm. to 1 µM GEM)", "setting": "source data 4B (p-site not named), 1 µM GEM + ATRi 10000 nM", "result": 0.27}, {"measurement": "PTM response (norm. to 1 µM GEM)", "setting": "source data 5B (p-site not named), 1 µM GEM + ATRi 3 nM", "result": 0.67}, {"measurement": "PTM response (norm. to 1 µM GEM)", "setting": "source data 5B (p-site not named), 1 µM GEM + ATRi 30 nM", "result": 0.17}]}]}
